Test system: rat DRG cultures
Test: Resistance to vincristine-induced axonal degeneration in adenovirus-infected rat DRG cultures
Assay type: cell-based
Procedure: Adenovirus was generated as previously described. Briefly, the modified transfer vector was linearized with NheI for preparation of the recombinant adenovirus. […] The transfected 293A cells were trypsinized and diluted with 293A cells, seeded into the 96-well tissue culture plates, and kept at 37 C, 5% CO2 for several days. […] Recombinant adenoviruses were purified from wild type viruses by the limiting dilution method. Adenovirus titers were determined by TCID-50 (Tissue Culture Infectious Dose).
Cultures had extended neurites for 6 days before introduction of the transgene. Transgene expression, indicated by GFP fluorescence, was monitored by fluorescence microscopy.
The methods for DRG culture have been previously described. […] Suppression of Schwann cell growth was accomplished by addition of fluorodeoxyuridine and uridine (both at a dose of 10^−6M, Sigma) on days 2-5.
E15 DRG were grown in culture for 6 days and then exposed to adenovirus (with or without the Wld^Stransgene) as described above. […] Length and area measurements were performed and analyzed as described above for mouse cultures.

[1] = Day 4, continuous 0.01 μM vincristine
[2] = Day 8, continuous 0.01 μM vincristine
[3] = Day 10, continuous 0.01 μM vincristine

## Vincristine sulfate salt
[1]
  Area of DRG halo (% of Day 0): 30.43 ± 5.05 % of Day 0
  Length of axons (% of Day 0): 48.79 ± 4.72 % of Day 0
[2]
  Area of DRG halo (% of Day 0): 13.23 ± 1.52 % of Day 0
  Length of axons (% of Day 0): 35.86 ± 3.76 % of Day 0
[3]
  Area of DRG halo (% of Day 0): 9.78 ± 2.22 % of Day 0
  Length of axons (% of Day 0): 26.28 ± 4.08 % of Day 0
